In patent US12043670B2, “Anti-BCMA antibody-drug conjugates and methods of use” (Eisai R&D Management Co., Ltd., priority 2020, dated 2024):

Experiments:
[1] = tested on: OPM2 cells; assay: CellTiter-Glo cell viability, OPM2 (normal serum); type: cell-based, human
[2] = tested on: MOLP8 cells; assay: CellTiter-Glo cell viability, MOLP8; type: cell-based, human
[3] = tested on: MM1.S cells; assay: CellTiter-Glo cell viability, MM1.S; type: cell-based, human; conditions: MM1.S, 96 h
[4] = Caco-2 permeability; type: in vitro ADME; conditions: human
Description: Caco-2 cells were cultured for 21 days in transwell 24-well plates at 37° C., 95% humidity, 5% CO2. Integrity of cell monolayer was confirmed by TEER (transepithelial electrical resistance) and Lucifer yellow. Payloads were spiked in duplicate at 10 μM, separately, on both sides of the cell monolayer. Permeability rates from the apical to basolateral (A-B) direction and the basolateral to apical (B-A) direction were determined by sampling aliquots from both chambers immediately after treatment (t=0) and following incubation for 2 hours. Samples were protein precipitated with organic solvent containing internal standard and analyzed by LC-MS/MS (SCIEX; API 5500). The area ratio responses of payload/internal standard over time in both directions were used to generate permeability (cm/sec) values. Efflux ratio was calculated by dividing B-A/A-B. Control compounds for low and high permeability and efflux behaved as expected.

[5] = tested on: splicing of Ad2.2 pre-mRNA in HeLa nuclear extract; assay: In vitro splicing (IVS), qPCR readout, Ad2.2 substrate; type: biochemical
Description: (§1) To evaluate payload activity in a cell-free system, an in vitro splicing assay was performed. The payloads were incubated with nuclear extracts and pre-mRNA substrate minigenes.
(§2) HeLa nuclear extract preparation: HeLa S3 cell pellets were resuspended in hypotonic buffer (10 mM HEPES pH 7.9, 1.5 mM MgCl2, 10 mM KCl, 0.2 mM PMSF, 0.5 mM DTT) and the suspension was brought up to a total of 5 packed cell volume (PCV). After centrifugation, the supernatant was discarded, and the cells were brought up to 3 PCV with hypotonic buffer and incubated on ice for 10 min. Cells were lysed using a dounce homogenizer and then centrifuged. The supernatant was discarded, and the pellet was resuspended with ½ packed nuclear volume (PNV) of low salt buffer (20 mM HEPES pH 7.9, 1.5 mM MgCl2, 20 mM KCl, 0.2 mM EDTA, 25% glycerol, 0.2 mM PMSF, 0.5 mM DTT), followed by ½ PNV of high salt buffer (same as low salt buffer except 1.4 M KCl). The nuclei were gently mixed for 30 min before centrifuging. The supernatant (nuclear extract) was then dialyzed into storage buffer (20 mM HEPES pH 7.9, 100 mM KCl, 0.2 mM EDTA, 20% glycerol, 0.2 mM PMSF, 0.5 mM DTT). Protein concentration was determined using NanoDrop 8000 UV-Vis spectrophotometer (ThermoFisher Scientific). […]

[6] = target: T1, SF3b complex (Homo sapiens, UniProt O75533+Q7RTV0); assay: SF3B1 binding / scintillation proximity assay (SPA); conditions: competition with 2.5 nM [3H]-pladienolide B probe
T1 construct: endogenous in cells; host or cells: nuclear extracts
Description: A scintillation proximity assay was performed to measure the binding affinity of compounds (“payloads”) to the SF3b complex. Batch immobilization of anti-SF3B1 antibody (MBL) to anti-mouse PVT SPA scintillation beads (PerkinElmer) was prepared. For every 2.5 mg of nuclear extracts, 5 μg of anti-SF3B1 antibody and 1.5 mg of beads were mixed in 150 μL PBS. The antibody-bead mixture was incubated for 30 min at room temperature (RT) and centrifuged at 18,000 g for 5 min. 150 μL PBS was used to resuspend every 1.5 mg antibody-bead mixture. The beads were suspended and added to the prepared nuclear extracts. The slurry was incubated for 2 hours at 4° C. with gentle mixing. The beads were then collected by centrifuging at 18,000 g for 5 min, and washed twice with PBS+0.1% Triton X-100. After a final centrifugation step, every 1.5 mg of beads was suspended with 150 μL of PBS. SF3b complexes were tested for [^3H]-labeled pladienolide B probe binding ([^3H]-PB), synthesized as previously described (Kotake et al. (2007) Nat Chem Biol. 3(9):570-5). 100 μL binding reactions were prepared with 50 μL bead slurry and by adding varying concentrations of PB or PB-OH, and after 30 min pre-incubation, 2.5 nM of [^3H]-PB was added. The mixture was incubated for 30 min, and luminescence signals were read using a MicroBeta2 Plate Counter (PerkinElmer). […]

[7] = tested on: splicing of Ad2.1 pre-mRNA in HeLa nuclear extract; assay: In vitro splicing (IVS), qPCR readout, Ad2.1 substrate; type: biochemical
Description: as §1, §2

[8] = PAMPA permeability; type: in vitro ADME; conditions: read-out: Stability, Mean, Perm PAMPA
[9] = tested on: MM1.R cells; assay: CellTiter-Glo cell viability, MM1.R; type: cell-based, human; conditions: 96 h

In the case of CC[C@H](O)[C@@H](C)[C@H]1O[C@@H]1C[C@@](C)(O)/C=C/C=C(\C)[C@H]1OC(=O)C[C@H](O)CC[C@@](C)(OC(C)=O)[C@@H](OC(=O)N2CCNCC2)/C=C/[C@@H]1C [D2, (2S,3S,6S,7R,10R,E)-7-acetoxy-10-hydroxy-2-((R,2E,4E)-6-hydroxy-7-((2R,3R)-3-((2R,3S)-3-hydroxypentan-2-yl)oxiran-2-yl)-6-methylhepta-2,4-dien-2-yl)-3,7-dimethyl-12-oxooxacyclododec-4-en-6-ylpiperazine-1-carboxylate], the GI50 ([1]; Homo sapiens, OPM-2, 96 h, read-out: CTGlo Mean GI50 OPM2 96 h) is reported as 1.69 nM, the “CTGlo Mean LD50 OPM2 96 h” value ([1]; payload alone, OPM2, 96 h) is reported as 7.74 nM and the GI50 ([2]; Homo sapiens, MOLP-8, 96 h, read-out: CTGlo Mean GI50 MOLP8 96 h) is reported as 1.15 nM. For the same compound, the “CTGlo Mean LD50 MOLP8 96 h” value ([2]; payload alone, MOLP8, 96 h) was 12.99 nM, the GI50 ([3]; Homo sapiens, read-out: CTGlo Mean GI50 MM1.S 96 h) was 1.69 nM and the “CTGlo Mean LD50 MM1.S 96 h” value ([3]; payload alone) was 7.74 nM. The efflux ratio at 2 h, 10 μM ([4]; B-A/A-B) was 9.4, the Papp A→B at 2 h, 10 μM ([4]; apical to basolateral, 10 μM, 2 hours, read-out: Permeability, Mean, Caco-2 A-B Perm) was 0.94 ×10⁻⁶ cm/s and the Papp B→A at 2 h, 10 μM ([4]; basolateral to apical, 10 μM, 2 hours, read-out: Permeability, Mean, Caco-2 B-A Perm) was 0.1 ×10⁻⁶ cm/s. It also gave an IC50 [5] of 119 nM, an IC50 [6] of 12.6 nM and an IC50 [7] of 27.3 nM. The Papp [8] was < 0.1 ×10⁻⁶ cm/s, the GI50 ([9]; Homo sapiens, MM.1R, read-out: CTGlo Mean GI50 MM1.R 96 h) was 7.59 nM and the “CTGlo Mean LD50 MM1.R 96 h” value ([9]; payload alone, MM1.R) was 21.4 nM.
